The nature of data set [1]: Evaluation of stability on excipient compatibility, compound C (Experimental Example 11). To be noted: 60° C., 75% RH, 2 weeks. Format: physicochemical. An excerpt:
Evaluation of Stability on Excipient Compatibility
Compound C was physically mixed in various additives shown in Table 48 in a mortar (see Table 48 for mixing ratio), and the obtained mixed powder was placed in a glass sample bottle in a layer thickness of about 5 mm.
The glass sample bottle was placed in a desiccator humidity-conditioned to 75% RH (relative humidity) without capping, and the desiccator containing the bottle was preserved for 2 weeks in a constant-temperature equipment set to 60° C.
After the completion of the preservation, a 60 v/v % aqueous acetonitrile solution was added to a concentration of compound C of 0.5 mg/mL, and the mixture was subjected to a dissolution treatment by ultrasonication and a filtration treatment. Each sample was measured by high performance liquid chromatography, and the stability was evaluated based on the changes from the start of preservation.

For data set [2] the following is noted: Guideline for the management of hyperuricemia and gout (1st Edit.); cited from earlier work.

The values that follow come from patent publication US20080305169A1, “Pharmaceutical Compositions Comprising Nitrogen-Containing Fused Ring Coumpounds” (Japan Tobacco Inc., priority 2006, published 2008).

The structures appear in SMILES notation.

Regarding `O=C(c1cc(Cl)c(O)c(Cl)c1)N1CCOc2ccccc21` [Reference Example 3, (3,5-dichloro-4-hydroxyphenyl)-(2,3-dihydrobenzo[1,4]oxazin-4-yl)-methanone], in data set [1] (compounded with an additive other than calcium silicate), the “stability when compounded with an additive” value is given as “good stability”. Moreover, the “HPLC peak of decomposition product” value in data set [1] (when calcium silicate is added) was “novel peak considered to derive from the decomposition product of compound C”. As to `O=c1[nH]c(=O)c2[nH]c(=O)[nH]c2[nH]1` [uric acid], the “dissolution concentration of uric acid in plasma” value in data set [2] is 7 mg/dL.
